Test results as given in PMC8464850, “Sulfonium Ligands of the α7 nAChR” (Molecules, 2021).
Structures can show the parent of a compound that is named as a salt.

How the values were obtained:
α7 nAChR [1] = target: T1, α7 nAChR (Homo sapiens, UniProt P36544); experiment: α7 responses on co-application with the type II PAM TQS (silent agonism); assay type: cell-based; conditions: for α7 functional classification (silent agonist / inactive): inactive alone, active with a PAM = silent agonist
T1 construct: expressed in transfected cells; host or cells: Xenopus laevis oocytes (injected RNA)
Experimental: (§1) Compounds were co-applied at a concentration of 100 µM with 30 µM racemic TQS (Figure 3A). All compounds except S4, S5, and S8 gave large responses when co-applied with TQS, consistent with silent agonism of α7 (see Table S1 for ANOVA). Active compounds were also evaluated across a range of concentrations with the alternative PAM, PNU-120596 (Figure 3B). The curve-fit values for Imax (Table 1) should be taken only as approximation of the relative efficacies of the compounds, due to the large variability frequently observed in PNU-120596-potentiated responses, as evidenced by the large SEMs of the responses obtained with high concentrations.
(§2) Figure 3 Responses of α7 nAChR to sulfonium compounds coapplied with PAMs. (A) Potentiation of α7 responses with 30 µM racemic TQS. Shown are the average net-charge responses of seven or eight oocytes ± SEM. (B) Concentration-response studies of peak currents generated by compounds that gave positive responses with TQS, coapplied with 10 µM PNU-120596. Each point represents the average (±SEM) of at least four oocytes.
The human nAChR clones were obtained from Jon Lindstrom (University of Pennsylvania, Philadelphia, PA, USA). Mouse muscle subunit clones were obtained from Jim Boulter (Salk Institute, La Jolla, CA, USA) and Paul Gardner (Dartmouth, Hanover, NH, USA). The human resistance-to-cholinesterase 3 (RIC3) clone was obtained from Millet Treinin (Hebrew University, Jerusalem, Israel) and co-injected with α7 to improve the level and speed of α7 receptor expression without affecting the pharmacological properties of the receptors. Subsequent to linearization and purification of the plasmid DNAs, RNAs were prepared using the mMessage mMachine in vitro RNA transcription kit (Ambion, Austin, TX, USA).
(§3) Experiments were conducted using OpusXpress 6000A (Molecular Devices, Union City, CA, USA). Both the voltage and current electrodes were filled with 3 M KCl. Oocytes were voltage-clamped at −60 mV at room temperature (24 °C). The oocytes were bath-perfused with Ringer’s solution (115 mM NaCl, 2.5 mM KCl, 1.8 mM CaCl2, 10 mM HEPES, and 1 μM atropine, pH 7.2) at 2 mL/min for α7 receptors, or 4 mL/min for heteromeric nAChR. To evaluate the effects of experimental compounds, responses were compared to control ACh-evoked responses, defined as the average of two initial applications of ACh made before test applications. ACh control concentrations were 60 µM for α7 receptors; 100 µM for α4(3)β2(2) and α3β4 receptors; 30 µM for α4β2α6β2β3 and muscle-type (αβ1εδ) receptors; and 10 µM for α4(3)β2(2) and α4(2)β2(2)α5 receptors.
(§4) Solutions were applied from 96-well plates via disposable tips. Drug applications were 12 s in duration, followed by 181 s washout periods for α7 receptors, or 6 s in duration followed by 301 s washout periods for heteromeric nAChR. The responses were calculated as both peak current amplitudes and net charge, as previously described. Data were collected at 50 Hz, filtered at 20 Hz for α7 receptors or filtered at 5 Hz for heteromeric nAChR, and analyzed by Clampfit (Molecular Devices, San Jose, CA, USA) and Excel (Microsoft, Redmond, WA, USA). Data were expressed as means ± SEM from at least four oocytes for each experiment and plotted with Kaleidagraph 4.5.2 (Abelbeck Software, Reading, PA, USA). Multi-cell averages were calculated for comparisons of complex responses. Averages of the normalized data were calculated for each of the 10,322 points in each of the 206.44 s traces (acquired at 50 Hz), as well as the standard errors for those averages.

α7 nAChR [2] = target: T1, α7 nAChR; experiment: α7 concentration-response on co-application with 10 µM PNU-120596; assay type: cell-based; conditions: peak currents, co-applied with 10 µM PNU-120596, Hill fit; for IMax (PNU Activation): approximation only
Experimental: as §1, §2, §3, §4

pKa by titration = assay type: physicochemical; conditions: phenolic hydroxyl, data not shown for S9, S10, read-out: pKa
Text: One of the questions that emerges from the data is why aromatic sulfoniums as structurally similar as S5, S9, and S10 provide different responses when coapplied with TQS. Indeed, compounds S5 and S9 virtually overlap in their best docked poses (Supplementary Figure S1), but the α7 response of S9 and TQS was dramatically greater than that of S5 and TQS (p < 0.001, Table S1). The formation of cation–pi interactions is a key feature of the binding of nicotinic orthosteric ligands, and the electronic distribution of the cation can be compared qualitatively in a series of compounds using molecular electrostatic potentials (MEPs). Analysis of the MEPs shown in Figure 9 reveal that the substituents on the benzene ring can modulate the intensity of the positive charge on the sulfonium center. Compound S5, for instance, has two hydroxyl groups which are strongly electron donating, and in comparison to compound S9, which has only one hydroxyl group, the intensity of the positive charge is […]. Another factor may be that a lone pair on the ortho hydroxyl substituent is donating electron density through space to the neighboring sulfonium, redistributing its positive charge. Compound S10 also has an ortho hydroxyl group, but unlike compound S5, compound S10 also has a nitro group, which is a strong electron-withdrawing group that may offset the electron-donating impact of the ortho hydroxyl group. Inspection of the MEP surface shown in Figure 9 does indicate that, relative to S5, the S10 sulfonium bears greater positive electrostatic potential. Given that compounds such as para-nitrophenol are acidic, with a pKa of ~7 for the phenolic hydroxyl, we also considered whether the deprotonated forms of S5, S9, and S10 might be accessible at the pH of our experiments.
Thus, all three compounds have varying proportions of the phenolic OH in the phenoxide form at the pH of Ringers solution used in the experiments. […] Future work on analogs of these compounds may be focused on substituents that are non-ionizable, and thus preserve a positive molecular charge derived from the sulfonium center.

T1 sequence (P36544 23-502): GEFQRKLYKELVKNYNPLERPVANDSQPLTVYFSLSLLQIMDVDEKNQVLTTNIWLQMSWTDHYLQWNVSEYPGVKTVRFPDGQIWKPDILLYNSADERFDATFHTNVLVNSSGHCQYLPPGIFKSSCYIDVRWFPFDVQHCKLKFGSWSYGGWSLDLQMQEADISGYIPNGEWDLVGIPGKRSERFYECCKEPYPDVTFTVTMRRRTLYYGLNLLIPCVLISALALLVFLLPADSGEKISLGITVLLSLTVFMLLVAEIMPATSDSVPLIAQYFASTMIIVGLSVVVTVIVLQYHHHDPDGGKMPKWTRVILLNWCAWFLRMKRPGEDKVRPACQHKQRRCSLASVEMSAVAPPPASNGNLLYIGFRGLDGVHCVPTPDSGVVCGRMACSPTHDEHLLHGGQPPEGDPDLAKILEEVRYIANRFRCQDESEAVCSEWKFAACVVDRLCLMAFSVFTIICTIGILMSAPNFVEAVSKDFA

Row | Structure (SMILES) | response when co-applied with TQS (α7 nAChR [1]; 100 µM compound with 30 µM racemic TQS, net charge) | IMax (PNU Activation) (α7 nAChR [2]) | relative activity as α7 silent agonist / desensitizer (rank order) (α7 nAChR [1]; 100 µM with 30 µM TQS, Figure 3A) | α7 functional classification (silent agonist / inactive) (α7 nAChR [1]) | pKa (pKa by titration) | EC50 (α7 nAChR [2]; read-out: EC50 (PNU Activation))
1 | C[S+](C)C.[I-] [Compound S1, trimethylsulfonium iodide] | produced potentiated α7 currents | 9.1 ± 0.05 |  |  |  | 
2 | C[S+](C)c1ccc(O)cc1 [Compound S9, (4-hydroxyphenyl)dimethylsulfonium methyl sulfate] |  | 3.98 ± 0.14 | most desensitizing | silent agonist activity | ~7.3 | 
3 | C[S+](C)c1cc([N+](=O)[O-])ccc1O.[Br-] [Compound S10, (2-hydroxy-5-nitrophenyl)dimethylsulfonium bromide] |  | 4.6 ± 0.1 |  | silent agonist activity | ~5 | 45.5 ± 50.6 µM
